Data from patent US8901316B2, “Process for preparing aminoadamantyl carbamate derivatives” (Shionogi & Co., Ltd., priority 2010, dated 2014).

Assay: stability to temperature and humidity changes (storage/handling)
Format: physicochemical
Settings: solid; storage without desiccant agent or without being sealed

**Q.** For “aminoadamantane carbamate hydrochloride dihydrate [III-2]”, which “stability to temperature and humidity changes” value is on record?
**A.** stable to temperature and humidity changes
